Measured values from publication PMC7915588, “Polyphyllin D Shows Anticancer Effect through a Selective Inhibition of Src Homology Region 2-Containing Protein Tyrosine Phosphatase-2 (SHP2)” (Molecules, 2021).

Legend:
Test in all cases: biochemical
Design in all cases: Fluorogenic phosphatase assay, DiFMUP hydrolysis by recombinant PTPs, initial velocity, Ex/Em 355/460 nm
Conditions in all cases: read-out: Inhibition by 20 µM polyphyllin D (%)
PTPN12 (PTP-PEST) = target: T1, PTPN12 (PTP-PEST) (Homo sapiens, UniProt Q05209)
T1 construct: 1-334
T1 sequence (Q05209 1-780): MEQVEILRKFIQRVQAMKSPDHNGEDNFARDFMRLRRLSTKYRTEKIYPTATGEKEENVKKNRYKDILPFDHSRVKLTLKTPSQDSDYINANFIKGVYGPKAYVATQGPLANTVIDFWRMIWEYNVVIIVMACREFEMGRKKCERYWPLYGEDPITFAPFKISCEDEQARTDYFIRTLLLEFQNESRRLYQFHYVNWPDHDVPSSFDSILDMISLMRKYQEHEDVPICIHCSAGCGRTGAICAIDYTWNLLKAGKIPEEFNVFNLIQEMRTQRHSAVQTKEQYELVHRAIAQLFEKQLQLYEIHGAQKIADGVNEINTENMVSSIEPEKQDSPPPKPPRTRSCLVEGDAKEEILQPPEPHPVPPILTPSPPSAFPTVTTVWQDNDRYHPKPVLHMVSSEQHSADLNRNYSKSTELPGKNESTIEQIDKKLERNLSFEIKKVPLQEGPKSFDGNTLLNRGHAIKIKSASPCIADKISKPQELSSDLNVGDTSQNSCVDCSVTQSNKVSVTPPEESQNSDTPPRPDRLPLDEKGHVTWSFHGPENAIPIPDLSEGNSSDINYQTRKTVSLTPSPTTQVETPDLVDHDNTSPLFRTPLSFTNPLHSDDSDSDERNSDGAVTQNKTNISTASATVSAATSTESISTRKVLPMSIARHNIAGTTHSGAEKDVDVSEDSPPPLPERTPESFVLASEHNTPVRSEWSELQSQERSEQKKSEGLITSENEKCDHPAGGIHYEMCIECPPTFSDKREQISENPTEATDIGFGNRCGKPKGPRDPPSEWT
Method: (§1) Enzymatic reactions were initiated by the addition of SHP2 (final concentration of 10 nM) to a solution of each of the 658 phytochemical compounds (final concentration of 20 µM) in reaction buffer (20 mM bis-tris pH 6.0, 150 mM NaCl, 2.5 mM dithiothreitol, and 0.01% Triton X-100) containing DiFMUP (final concentration of 140 µM). Changes in the fluorescence intensities were measured continuously for 10 min at Ex/Em = 355/460 nm on a VictorTM X4 multilabel plate reader. Enzyme inhibition was estimated by comparing the reaction velocity in the presence of each compound with that in the absence of any compound. Inhibition of the other PTPs was measured in the same way. Next, we established a screening strategy using a DiFMUP substrate to identify a natural product that inhibits SHP2 activity. Initially, we screened 658 compounds at 20 µM using a 96-well plate system (Figure 2A). […] The selected compounds were tested at 20 µM for SHP2 inhibition, and 14 additional non-receptor-type PTPs (PTP1B, TCPTP, PTPH1, STEP, SHP1, HePTP, PTP-MEG2, PTP-PEST, PTP-BAS, PTP36, PTP-HSCF, PTPD1, LYP, and HD-PTP) were used to investigate the inhibition selectivity. The results were visualized using a heat map analysis by GraphPad Prism (Figure 2B and Table S2 in Supplementary Materials). To identify new SHP2 anticancer natural products, we first performed cloning to express SHP2 protein and then purified it. PTPN11 (Gene ID: 5781) encoding human SHP2 (amino acids sequences 1 to 526) with several extra amino acids were cloned into the MBP-pET 28a (+) vector, which was successfully used to overexpress PTPs with enhanced solubility in an Escherichia coli expression system. Information on amino acids for 15 non-receptor-type PTPs including SHP2 is summarized in Table S3 in the Supplementary Materials. SHP2 was overexpressed in RosettaTM (DE3) and purified using a metal affinity resin (Figure S1 in Supplementary Materials). […] The kcat, KM, and kcat/KM values were determined to be 270 min^−1, 70 μM, and 3.9 μM^−1min^−1, respectively, using the Lineweaver–Burk plot analysis (Table S1 in Supplementary Materials).

PTPN23 (HD-PTP) = target: T2, PTPN23 (HD-PTP) (Homo sapiens, UniProt Q9H3S7)
T2 construct: 1179-1463
Method: as §1

PTPN5 (STEP) = target: T3, PTPN5 (STEP) (Homo sapiens, UniProt P54829)
T3 construct: 313-565
T3 sequence (P54829 1-565): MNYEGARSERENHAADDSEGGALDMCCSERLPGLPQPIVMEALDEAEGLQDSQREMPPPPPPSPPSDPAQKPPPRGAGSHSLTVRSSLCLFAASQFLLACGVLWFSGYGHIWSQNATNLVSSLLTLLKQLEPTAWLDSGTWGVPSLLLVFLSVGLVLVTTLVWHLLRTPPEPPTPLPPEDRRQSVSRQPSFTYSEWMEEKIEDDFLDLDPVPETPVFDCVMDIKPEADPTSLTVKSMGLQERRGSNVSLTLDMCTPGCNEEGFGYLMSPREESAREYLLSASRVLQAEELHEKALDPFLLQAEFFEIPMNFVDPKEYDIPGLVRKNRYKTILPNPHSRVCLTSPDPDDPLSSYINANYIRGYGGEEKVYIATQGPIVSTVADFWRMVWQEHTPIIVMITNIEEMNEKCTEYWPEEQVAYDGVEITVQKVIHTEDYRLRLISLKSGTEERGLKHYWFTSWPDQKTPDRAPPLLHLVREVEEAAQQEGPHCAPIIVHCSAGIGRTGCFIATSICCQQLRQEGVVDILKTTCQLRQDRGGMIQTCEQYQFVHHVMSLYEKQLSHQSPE
Method: as §1

T2 sequence (Q9H3S7 whole entry): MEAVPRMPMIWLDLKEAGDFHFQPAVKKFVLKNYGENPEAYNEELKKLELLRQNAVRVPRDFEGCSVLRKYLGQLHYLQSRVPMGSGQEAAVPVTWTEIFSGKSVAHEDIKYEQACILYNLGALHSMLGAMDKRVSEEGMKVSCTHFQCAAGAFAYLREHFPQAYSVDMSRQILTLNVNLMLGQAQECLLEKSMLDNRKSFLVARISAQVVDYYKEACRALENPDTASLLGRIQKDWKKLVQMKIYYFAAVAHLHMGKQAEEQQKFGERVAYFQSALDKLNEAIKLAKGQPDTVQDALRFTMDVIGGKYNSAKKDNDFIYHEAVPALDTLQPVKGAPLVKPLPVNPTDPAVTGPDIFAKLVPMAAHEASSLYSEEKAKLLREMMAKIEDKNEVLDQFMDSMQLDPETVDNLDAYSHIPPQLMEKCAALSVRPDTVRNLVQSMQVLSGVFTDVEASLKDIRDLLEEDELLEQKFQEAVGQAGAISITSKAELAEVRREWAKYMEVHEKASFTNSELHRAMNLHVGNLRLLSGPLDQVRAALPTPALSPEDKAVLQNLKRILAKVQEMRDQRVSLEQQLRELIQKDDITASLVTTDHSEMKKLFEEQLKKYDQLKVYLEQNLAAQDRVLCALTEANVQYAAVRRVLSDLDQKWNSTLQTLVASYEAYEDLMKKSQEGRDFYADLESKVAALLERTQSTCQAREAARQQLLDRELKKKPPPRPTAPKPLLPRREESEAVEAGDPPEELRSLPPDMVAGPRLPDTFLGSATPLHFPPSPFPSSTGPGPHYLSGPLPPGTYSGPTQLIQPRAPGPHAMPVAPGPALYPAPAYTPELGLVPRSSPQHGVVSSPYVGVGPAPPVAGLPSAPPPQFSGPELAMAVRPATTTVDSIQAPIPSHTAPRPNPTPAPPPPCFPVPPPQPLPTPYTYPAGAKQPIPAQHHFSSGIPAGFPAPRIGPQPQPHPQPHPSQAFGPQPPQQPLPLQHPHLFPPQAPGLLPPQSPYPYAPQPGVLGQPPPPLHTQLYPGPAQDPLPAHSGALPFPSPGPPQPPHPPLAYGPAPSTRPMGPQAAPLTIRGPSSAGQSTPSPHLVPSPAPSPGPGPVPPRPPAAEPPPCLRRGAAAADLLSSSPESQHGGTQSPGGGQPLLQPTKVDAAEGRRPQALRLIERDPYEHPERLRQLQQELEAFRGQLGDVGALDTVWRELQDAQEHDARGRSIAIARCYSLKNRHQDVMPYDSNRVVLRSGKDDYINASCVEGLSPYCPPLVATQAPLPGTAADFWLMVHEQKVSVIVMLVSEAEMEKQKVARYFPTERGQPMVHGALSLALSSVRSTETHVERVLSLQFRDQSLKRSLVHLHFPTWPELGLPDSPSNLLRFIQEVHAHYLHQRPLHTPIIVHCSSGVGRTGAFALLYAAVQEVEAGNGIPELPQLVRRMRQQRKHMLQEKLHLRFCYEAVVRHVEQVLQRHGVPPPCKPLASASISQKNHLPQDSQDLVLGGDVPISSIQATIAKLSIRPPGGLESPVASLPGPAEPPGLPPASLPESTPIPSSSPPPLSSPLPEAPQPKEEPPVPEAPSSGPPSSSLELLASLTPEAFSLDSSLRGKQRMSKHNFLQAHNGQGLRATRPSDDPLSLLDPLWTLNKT

C[C@@H]1CC[C@@]2(OC1)O[C@H]1C[C@H]3[C@@H]4CC=C5C[C@@H](O[C@@H]6O[C@H](CO)[C@@H](O[C@@H]7O[C@@H](CO)[C@H](O)[C@H]7O)[C@H](O)[C@H]6O[C@@H]6O[C@@H](C)[C@H](O)[C@@H](O)[C@H]6O)CC[C@]5(C)[C@H]4CC[C@]3(C)[C@H]1[C@@H]2C [polyphyllin D]
inhibition at 20 µM (PTPN12 (PTP-PEST)): 29.9% | inhibition at 20 µM (PTPN23 (HD-PTP)): 0% | inhibition at 20 µM (PTPN5 (STEP)): 0%
